Assays:
Assay in all cases: KinomeScan profiling
Type in all cases: binding
AMPK-alpha1 = target: T1, AMPK-alpha1 (Homo sapiens, UniProt Q13131); details: AMPK-alpha1, 1 μM; read-out: % control
T1 construct: purchased KinomeScan®
Outline: (§1)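 1 μM cpd in DMSO; 468-kinase panel; readout RLU. % ctrl = (cpd − pos ctrl)/(neg ctrl − pos ctrl) ×100. Pos ctrl = 0%, DMSO = 100%. Hit cut-off <35%.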

BMX = target: T2, BMX (Homo sapiens, UniProt P51813); details: read-out: % control
T2 construct: purchased KinomeScan®
T2 sequence (P51813 1-675): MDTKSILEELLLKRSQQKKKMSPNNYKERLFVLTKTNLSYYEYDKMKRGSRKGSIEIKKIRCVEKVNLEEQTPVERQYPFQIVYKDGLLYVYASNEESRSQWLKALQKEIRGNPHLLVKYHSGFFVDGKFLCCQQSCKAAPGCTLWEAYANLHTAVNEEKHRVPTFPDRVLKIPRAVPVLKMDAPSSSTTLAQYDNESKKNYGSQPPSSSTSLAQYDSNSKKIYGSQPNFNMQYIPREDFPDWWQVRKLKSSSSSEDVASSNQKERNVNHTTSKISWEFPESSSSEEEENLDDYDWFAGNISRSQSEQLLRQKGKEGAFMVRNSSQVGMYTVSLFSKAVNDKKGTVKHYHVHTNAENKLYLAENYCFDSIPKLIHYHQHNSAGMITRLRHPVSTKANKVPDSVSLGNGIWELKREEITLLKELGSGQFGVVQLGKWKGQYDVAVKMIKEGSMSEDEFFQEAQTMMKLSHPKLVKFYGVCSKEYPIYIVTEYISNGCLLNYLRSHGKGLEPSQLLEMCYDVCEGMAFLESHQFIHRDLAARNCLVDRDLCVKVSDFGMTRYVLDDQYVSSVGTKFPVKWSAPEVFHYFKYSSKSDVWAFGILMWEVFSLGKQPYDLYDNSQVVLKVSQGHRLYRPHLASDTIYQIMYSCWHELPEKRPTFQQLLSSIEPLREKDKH
Outline: as §1

DYRK1A = DYRK1A (Homo sapiens, UniProt Q13627); details: read-out: % control
Outline: as §1

FLT1 = FLT1 (Homo sapiens, UniProt P17948); details: FLT1, 1 μM; read-out: % control
Outline: as §1

IRAK1 = target: T3, IRAK1 (Homo sapiens, UniProt P51617); details: IRAK1, 1 μM; read-out: % control
T3 construct: purchased KinomeScan®
T3 sequence (P51617 whole entry): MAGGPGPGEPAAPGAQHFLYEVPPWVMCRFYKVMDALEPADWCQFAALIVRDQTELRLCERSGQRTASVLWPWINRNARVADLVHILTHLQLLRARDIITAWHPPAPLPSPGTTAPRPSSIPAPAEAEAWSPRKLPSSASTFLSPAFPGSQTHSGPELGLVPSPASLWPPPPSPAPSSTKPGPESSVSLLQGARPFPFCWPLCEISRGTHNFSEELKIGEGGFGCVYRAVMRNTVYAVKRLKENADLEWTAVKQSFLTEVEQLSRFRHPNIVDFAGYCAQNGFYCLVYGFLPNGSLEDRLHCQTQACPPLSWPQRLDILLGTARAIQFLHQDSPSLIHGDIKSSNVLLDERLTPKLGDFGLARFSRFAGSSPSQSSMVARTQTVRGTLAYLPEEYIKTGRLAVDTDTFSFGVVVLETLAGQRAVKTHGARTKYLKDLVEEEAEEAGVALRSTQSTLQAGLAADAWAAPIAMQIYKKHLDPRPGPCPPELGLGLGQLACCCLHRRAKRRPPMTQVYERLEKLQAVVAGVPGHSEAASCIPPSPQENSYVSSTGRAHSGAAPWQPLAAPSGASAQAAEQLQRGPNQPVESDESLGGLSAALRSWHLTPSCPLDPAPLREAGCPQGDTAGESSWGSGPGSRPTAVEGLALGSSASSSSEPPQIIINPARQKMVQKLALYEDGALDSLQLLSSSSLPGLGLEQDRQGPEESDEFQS
Outline: as §1

PIK3CA(E542K) = target: T4, PIK3CA(E542K) (Homo sapiens, UniProt P42336, E542K); details: read-out: % control
T4 construct: purchased KinomeScan® (panel service)
T4 sequence (P42336 whole entry E542K): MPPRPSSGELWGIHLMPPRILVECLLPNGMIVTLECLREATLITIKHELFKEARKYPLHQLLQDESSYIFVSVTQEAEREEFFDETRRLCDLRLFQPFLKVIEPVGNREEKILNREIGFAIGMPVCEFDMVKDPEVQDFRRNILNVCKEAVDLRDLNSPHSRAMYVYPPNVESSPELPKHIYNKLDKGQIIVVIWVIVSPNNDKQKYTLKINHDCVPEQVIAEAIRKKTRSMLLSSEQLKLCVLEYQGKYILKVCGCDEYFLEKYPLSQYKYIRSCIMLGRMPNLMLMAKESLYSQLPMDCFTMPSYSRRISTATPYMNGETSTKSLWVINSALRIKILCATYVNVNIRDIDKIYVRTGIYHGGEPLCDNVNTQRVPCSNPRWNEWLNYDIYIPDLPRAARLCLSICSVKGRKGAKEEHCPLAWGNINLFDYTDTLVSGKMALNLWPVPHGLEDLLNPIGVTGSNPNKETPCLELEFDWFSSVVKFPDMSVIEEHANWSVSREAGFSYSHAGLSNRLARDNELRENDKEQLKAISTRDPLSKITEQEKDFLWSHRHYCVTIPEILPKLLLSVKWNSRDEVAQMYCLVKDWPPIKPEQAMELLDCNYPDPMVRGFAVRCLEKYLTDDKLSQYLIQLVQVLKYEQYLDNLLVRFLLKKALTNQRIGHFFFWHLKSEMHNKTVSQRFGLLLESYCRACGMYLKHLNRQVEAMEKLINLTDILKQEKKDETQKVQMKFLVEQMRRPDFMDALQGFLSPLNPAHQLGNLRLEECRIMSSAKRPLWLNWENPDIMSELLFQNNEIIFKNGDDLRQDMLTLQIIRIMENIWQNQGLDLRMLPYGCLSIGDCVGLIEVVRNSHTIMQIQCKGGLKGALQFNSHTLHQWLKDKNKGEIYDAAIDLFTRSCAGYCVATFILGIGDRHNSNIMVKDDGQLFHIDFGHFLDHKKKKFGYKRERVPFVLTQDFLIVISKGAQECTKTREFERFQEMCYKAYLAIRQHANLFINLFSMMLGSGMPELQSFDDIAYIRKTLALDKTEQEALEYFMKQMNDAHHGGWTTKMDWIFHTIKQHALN
Outline: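 Compounds were screened at 1 μM in DMSO across a 468-kinase KinomeScan panel. Binding was expressed as % control, scaled between a positive control (0%) and DMSO (100%) using luminescence signal. A value under 35% counted as active.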

RIPK1 = target: T5, RIPK1 (Homo sapiens, UniProt Q13546); details: RIPK1, 1 μM; read-out: % control
T5 sequence (Q13546 1-671): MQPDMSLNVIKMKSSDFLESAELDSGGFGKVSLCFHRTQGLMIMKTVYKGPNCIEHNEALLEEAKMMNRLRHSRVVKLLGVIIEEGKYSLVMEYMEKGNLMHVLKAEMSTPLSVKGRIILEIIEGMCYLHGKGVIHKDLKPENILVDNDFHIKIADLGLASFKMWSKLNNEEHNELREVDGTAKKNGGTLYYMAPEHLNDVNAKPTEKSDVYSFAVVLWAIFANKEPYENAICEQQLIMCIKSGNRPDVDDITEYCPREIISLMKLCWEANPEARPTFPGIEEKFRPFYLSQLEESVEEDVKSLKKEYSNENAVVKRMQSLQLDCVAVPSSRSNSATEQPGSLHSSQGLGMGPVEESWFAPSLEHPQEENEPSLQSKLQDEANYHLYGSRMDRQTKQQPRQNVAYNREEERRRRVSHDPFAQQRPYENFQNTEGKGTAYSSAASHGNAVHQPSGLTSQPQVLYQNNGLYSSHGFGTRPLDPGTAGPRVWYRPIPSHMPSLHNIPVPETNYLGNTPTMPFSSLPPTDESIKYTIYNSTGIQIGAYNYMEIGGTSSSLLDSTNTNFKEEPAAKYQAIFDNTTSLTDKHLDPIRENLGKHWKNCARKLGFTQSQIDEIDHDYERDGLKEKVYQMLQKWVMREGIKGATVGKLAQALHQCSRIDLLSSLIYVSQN
Outline: as §1

SYK = target: T6, SYK (Homo sapiens, UniProt P43405); details: read-out: % control
T6 construct: purchased KinomeScan® (panel service)
Outline: as §1

TNK2 = TNK2 (Homo sapiens, UniProt Q07912); details: TNK2, 1 μM; read-out: % control
Chain of TNK2 (Q07912 whole entry): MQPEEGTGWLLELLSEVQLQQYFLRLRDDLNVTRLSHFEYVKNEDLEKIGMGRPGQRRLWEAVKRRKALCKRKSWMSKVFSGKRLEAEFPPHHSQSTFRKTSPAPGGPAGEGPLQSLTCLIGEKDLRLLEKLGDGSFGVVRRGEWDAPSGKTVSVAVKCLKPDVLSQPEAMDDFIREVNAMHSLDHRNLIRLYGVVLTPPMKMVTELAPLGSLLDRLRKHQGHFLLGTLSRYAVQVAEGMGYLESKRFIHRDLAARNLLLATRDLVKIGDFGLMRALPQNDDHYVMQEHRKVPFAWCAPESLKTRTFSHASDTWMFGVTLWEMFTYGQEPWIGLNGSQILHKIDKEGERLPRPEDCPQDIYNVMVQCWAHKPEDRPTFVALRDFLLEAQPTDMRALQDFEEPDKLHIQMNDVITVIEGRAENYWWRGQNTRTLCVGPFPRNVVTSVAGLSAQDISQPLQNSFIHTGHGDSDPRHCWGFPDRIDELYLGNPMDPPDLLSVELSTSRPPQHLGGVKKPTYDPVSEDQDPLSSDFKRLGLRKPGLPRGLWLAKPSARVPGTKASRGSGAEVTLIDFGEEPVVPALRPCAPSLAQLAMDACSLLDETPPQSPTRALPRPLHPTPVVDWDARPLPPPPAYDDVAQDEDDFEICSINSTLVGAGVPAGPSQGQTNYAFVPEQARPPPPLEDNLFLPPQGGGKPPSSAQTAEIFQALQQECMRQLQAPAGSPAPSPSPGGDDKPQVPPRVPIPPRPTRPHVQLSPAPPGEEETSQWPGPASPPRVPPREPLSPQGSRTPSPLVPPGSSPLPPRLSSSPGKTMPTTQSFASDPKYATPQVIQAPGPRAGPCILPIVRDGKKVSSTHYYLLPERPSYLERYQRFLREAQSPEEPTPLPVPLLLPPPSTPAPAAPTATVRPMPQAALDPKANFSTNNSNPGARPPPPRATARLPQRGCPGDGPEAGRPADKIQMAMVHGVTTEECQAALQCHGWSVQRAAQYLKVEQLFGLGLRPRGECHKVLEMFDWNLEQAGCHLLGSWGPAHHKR
Outline: as §1

WNK4 = WNK4 (Homo sapiens, UniProt Q96J92); details: WNK4, 1 μM; read-out: % control
Chain of WNK4 (Q96J92 whole entry): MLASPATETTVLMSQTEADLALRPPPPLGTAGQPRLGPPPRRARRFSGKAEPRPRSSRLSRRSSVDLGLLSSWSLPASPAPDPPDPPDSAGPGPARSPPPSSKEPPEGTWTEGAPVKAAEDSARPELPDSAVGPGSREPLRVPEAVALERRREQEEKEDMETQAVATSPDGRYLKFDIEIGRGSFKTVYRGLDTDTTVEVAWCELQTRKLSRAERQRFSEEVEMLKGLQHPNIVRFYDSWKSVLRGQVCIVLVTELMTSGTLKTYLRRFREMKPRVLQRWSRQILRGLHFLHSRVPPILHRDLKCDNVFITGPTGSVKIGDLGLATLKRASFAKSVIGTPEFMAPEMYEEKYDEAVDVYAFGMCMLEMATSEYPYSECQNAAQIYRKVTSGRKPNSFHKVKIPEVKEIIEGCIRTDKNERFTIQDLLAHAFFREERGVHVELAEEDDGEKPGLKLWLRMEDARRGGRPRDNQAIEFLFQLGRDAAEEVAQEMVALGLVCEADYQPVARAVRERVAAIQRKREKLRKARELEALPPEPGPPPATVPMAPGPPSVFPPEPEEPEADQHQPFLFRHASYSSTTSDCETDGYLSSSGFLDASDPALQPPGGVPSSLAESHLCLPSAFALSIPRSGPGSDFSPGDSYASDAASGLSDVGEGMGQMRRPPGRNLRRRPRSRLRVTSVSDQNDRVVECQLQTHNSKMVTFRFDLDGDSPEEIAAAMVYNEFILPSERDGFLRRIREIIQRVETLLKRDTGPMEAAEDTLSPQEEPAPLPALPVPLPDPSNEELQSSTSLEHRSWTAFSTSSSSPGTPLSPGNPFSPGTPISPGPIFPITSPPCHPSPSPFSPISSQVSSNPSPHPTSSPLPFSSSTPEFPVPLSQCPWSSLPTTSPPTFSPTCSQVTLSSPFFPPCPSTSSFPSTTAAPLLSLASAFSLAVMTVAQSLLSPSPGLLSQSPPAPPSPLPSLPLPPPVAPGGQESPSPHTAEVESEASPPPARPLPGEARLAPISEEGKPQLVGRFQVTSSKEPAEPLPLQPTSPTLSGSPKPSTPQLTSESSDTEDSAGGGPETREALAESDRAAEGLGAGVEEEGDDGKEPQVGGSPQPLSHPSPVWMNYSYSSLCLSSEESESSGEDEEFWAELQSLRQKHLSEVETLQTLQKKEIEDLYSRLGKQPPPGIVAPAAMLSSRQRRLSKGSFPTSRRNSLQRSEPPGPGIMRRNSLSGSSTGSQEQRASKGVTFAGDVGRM
Outline: as §1

YANK1 = YANK1 (Homo sapiens, UniProt Q8WU08); details: YANK1, 1 μM; read-out: % control
Chain of YANK1 (Q8WU08 whole entry): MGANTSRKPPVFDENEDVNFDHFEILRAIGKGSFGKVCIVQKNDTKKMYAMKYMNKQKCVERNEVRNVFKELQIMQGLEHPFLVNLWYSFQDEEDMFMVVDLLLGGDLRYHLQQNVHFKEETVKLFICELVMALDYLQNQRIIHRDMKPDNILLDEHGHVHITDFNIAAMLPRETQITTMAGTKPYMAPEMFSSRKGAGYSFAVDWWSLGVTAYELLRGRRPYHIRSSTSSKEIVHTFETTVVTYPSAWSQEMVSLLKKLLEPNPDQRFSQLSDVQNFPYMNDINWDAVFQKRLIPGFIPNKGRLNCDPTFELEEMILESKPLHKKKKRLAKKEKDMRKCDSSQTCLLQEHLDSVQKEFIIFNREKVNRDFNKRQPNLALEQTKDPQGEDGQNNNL
Outline: as §1

T1 sequence (Q13131 whole entry): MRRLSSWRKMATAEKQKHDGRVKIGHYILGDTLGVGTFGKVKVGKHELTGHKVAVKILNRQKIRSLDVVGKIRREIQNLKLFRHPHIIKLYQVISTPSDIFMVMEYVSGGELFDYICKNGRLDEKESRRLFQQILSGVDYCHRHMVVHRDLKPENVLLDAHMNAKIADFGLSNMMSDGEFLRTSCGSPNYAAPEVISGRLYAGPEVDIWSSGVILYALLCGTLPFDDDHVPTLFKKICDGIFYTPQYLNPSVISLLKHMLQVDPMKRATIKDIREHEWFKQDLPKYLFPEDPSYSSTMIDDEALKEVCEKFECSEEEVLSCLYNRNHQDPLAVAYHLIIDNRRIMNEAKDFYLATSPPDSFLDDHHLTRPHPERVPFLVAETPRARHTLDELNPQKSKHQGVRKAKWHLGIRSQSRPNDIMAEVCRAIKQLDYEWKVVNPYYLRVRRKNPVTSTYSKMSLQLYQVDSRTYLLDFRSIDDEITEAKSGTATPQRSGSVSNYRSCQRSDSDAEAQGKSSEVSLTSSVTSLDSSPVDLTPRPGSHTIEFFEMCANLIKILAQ

| Compound | remaining binding at 1 µM (AMPK-alpha1) [%] | remaining binding at 1 µM (BMX) [%] | remaining binding at 1 µM (DYRK1A) [%] | remaining binding at 1 µM (FLT1) [%] | remaining binding at 1 µM (IRAK1) [%] | remaining binding at 1 µM (PIK3CA(E542K)) [%] | remaining binding at 1 µM (RIPK1) [%] | remaining binding at 1 µM (SYK) [%] | remaining binding at 1 µM (TNK2) [%] | remaining binding at 1 µM (WNK4) [%] | remaining binding at 1 µM (YANK1) [%] |
| --- | --- | --- | --- | --- | --- | --- | --- | --- | --- | --- | --- |
| O=C(c1ccc(-c2cnc3[nH]cc(Cl)c3c2NC2CCCC2)cc1)N1CCC(N2CCOCC2)CC1 [Compound 101, (4-(3-chloro-4-(cyclopentylamino)-1H-pyrrolo[2,3-b]pyridin-5-yl)phenyl)(4-morpholinopiperidin-1-yl)methanone] | 78 | 34 | 4 | 51 | 100 | 98 | 47 | 100 | 98 | 100 | 100 |
| CNc1c(-c2cnn([C@H]3CCN(C(C)=O)C[C@@H]3F)c2)cnc2[nH]cc(Cl)c12 [Compound 77, 1-((3S,4S)-4-(4-(3-chloro-4-(methylamino)-1H-pyrrolo[2,3-b]pyridin-5-yl)-1H-pyrazol-1-yl)-3-fluoropiperidin-1-yl)ethan-1-one] | 100 | 88 | 58 | 21 | 33 | 100 | 19 | 100 | 100 | 77 | 100 |
| CNc1c(-c2ccc(C(=O)N3CCC(N4CCOCC4)CC3)cc2)cnc2[nH]cc(Cl)c12 [Compound 96, (4-(3-chloro-4-(methylamino)-1H-pyrrolo[2,3-b]pyridin-5-yl)phenyl)(4-morpholinopiperidin-1-yl)methanone] | 75 | 93 | 69 | 33 | 41 | 100 | 44 | 100 | 94 | 84 | 100 |
